Measurements reported in US20170342451A1, “BIOSYNTHESIS OF PACLITAXEL INTERMEDIATE” (Board of Trustees of Michigan State University, priority 2012, published 2017).

Columns and labels:
[1] = target: T1, TycA (Brevibacillus parabrevis, UniProt P09095); assay: CoA ligase reaction kinetics, TycA; type: biochemical, Brevibacillus brevis; details: for kcat^CoA: turnover with CoA at apparent saturation
T1 construct: this wild-type tycA cDNA encoding the A-, T-, and E-domains was subcloned into a pSU18 vector; made in house; host or cells: Escherichia coli BL21(DE3)
T1 sequence (P09095 with tags, fused parts or gaps): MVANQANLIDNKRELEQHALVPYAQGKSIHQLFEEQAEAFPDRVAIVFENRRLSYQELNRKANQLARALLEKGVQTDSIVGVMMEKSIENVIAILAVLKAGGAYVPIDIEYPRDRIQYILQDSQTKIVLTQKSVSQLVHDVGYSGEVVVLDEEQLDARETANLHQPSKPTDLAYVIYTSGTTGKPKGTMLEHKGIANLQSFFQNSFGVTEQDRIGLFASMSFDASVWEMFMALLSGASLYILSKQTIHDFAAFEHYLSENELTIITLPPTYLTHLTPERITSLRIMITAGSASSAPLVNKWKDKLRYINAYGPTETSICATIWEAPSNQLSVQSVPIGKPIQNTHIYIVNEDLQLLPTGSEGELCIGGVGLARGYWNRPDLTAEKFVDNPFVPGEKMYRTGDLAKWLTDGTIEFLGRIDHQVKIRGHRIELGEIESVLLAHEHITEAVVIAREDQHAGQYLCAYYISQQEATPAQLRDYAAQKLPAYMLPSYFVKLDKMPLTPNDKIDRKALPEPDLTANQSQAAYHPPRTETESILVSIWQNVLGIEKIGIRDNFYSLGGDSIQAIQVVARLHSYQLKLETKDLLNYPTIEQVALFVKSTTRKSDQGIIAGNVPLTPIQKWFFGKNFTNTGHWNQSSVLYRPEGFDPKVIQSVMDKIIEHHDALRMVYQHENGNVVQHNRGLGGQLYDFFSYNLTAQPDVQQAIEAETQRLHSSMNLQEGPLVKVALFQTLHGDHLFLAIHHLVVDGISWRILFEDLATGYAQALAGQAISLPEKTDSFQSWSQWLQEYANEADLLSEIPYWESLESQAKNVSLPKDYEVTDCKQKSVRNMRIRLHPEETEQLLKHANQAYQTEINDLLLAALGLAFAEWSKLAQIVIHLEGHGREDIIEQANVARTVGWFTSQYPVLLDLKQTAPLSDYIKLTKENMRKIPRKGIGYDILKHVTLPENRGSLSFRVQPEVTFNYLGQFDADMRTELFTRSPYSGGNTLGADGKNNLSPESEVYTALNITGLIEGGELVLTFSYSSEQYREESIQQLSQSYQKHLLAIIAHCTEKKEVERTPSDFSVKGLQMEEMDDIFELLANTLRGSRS
Method: (§1) Under steady-state conditions, (S)-α-phenylalanine, (R)-β-phenylalanine, and (2R,3S)-phenylisoserine at 5, 10, 20, 40, 80, 160, 250, 500, 1000 and 2000 μM were separately incubated with TycA or TycA-S563A (20 μg) for 30 min. At the end of each reaction, and prior to mass spectrometry analysis, acetyl CoA (1 μM) was added as the internal standard to each sample to correct for variations of the analyte. The products of the enzyme-catalyzed reaction were quantified by a liquid chromatography multiple reaction monitoring (LC-ESI-MRM) mass spectrometry technique (Anderson & Hunter, Mol. Cell. Proteomics 5: 573-588 (2006)) on the Quattro-Premier Electro-Spray Mass Spectrometer coupled with Acquity® UPLC system fitted with a C18 Ascentis Express column (2.5×50 mm, 2.7 μm) at 30° C. An aliquot (5 μL) of each sample was loaded onto the column and the analytes were eluted with a solvent gradient of acetonitrile (Solvent A) in 0.05% triethylamine in distilled water (Solvent B). Elution was held at 2.5% Solvent A for 3.17 min, increased to 100% Solvent A over 5 sec with a 2-min hold, and then returned to 2.5% Solvent A over 5 sec with a 50-sec hold. The flow rate employed was 0.4 mL/min. The effluent from the chromatography column was directed to the mass spectrometer where the first quadrupole mass analyzer (in negative ion mode) was set to select for the molecular ion of a biosynthesized acyl CoA product. The selected ion was then directed to a collision gas chamber where the collision energy was optimized to maximize the abundance of a single signature fragment ion (m/z 408, characteristic of acyl CoA thioesters) resolved in the second quadrupole mass analyzer by the MRM method. The peak area under the curve of fragment ion m/z 408 for each biosynthetic phenylpropionyl CoA thioester was converted to concentration by comparing the peak area of the same ion produced by authentic CoA (at 0.05, 0.1, 0.2, 0.4, 0.8, 1.6, 3.2, 6.4, 12.5, 25, 50, 100 μM) using linear regression analysis.
(§2) The KM values of TycA and TycA-S563A for CoA were assessed by incubating each enzyme separately with (S)-α-phenylalanine (1 mM), MgCl2 (3 mM), ATP (1 mM), and CoA at 0.05, 0.1, 0.2, 0.4, 0.8, 1.6, 3.2, 6.4, 12.8 and 25.6 mM at 31° C. for 20 min. At the end of each reaction and prior to mass spectrometry analysis, acetyl CoA (1 μM) was added as the internal standard to each sample to correct for variations of the analyte. The products of the enzyme-catalyzed reaction were quantified by LC-ESI-MRM, and the monitored fragment ion (m/z 408) derived from the CoA moiety of the thioester analytes in the effluent was quantified identically to the procedure described earlier herein.

[2] = target: TycA-S563A (Brevibacillus parabrevis, UniProt P09095, S563A); details: CoA with (S)-α-Phe as cosubstrate; for kcat^CoA: turnover with CoA at apparent saturation
Method: as §1, with “The selected ion was then directed to a collision gas chamber where the collision energy was optimized to maximize the abundance of a single signature fragment ion (m/z 408, characteristic of acyl CoA thioesters) resolved in the second quadrupole mass analyzer by the MRM method. The peak area under the curve of fragment ion m/z 408 for each biosynthetic phenylpropionyl CoA thioester was converted to concentration by comparing the peak area of the same ion produced by authentic CoA (at 0.05, 0.1, 0.2, 0.4, 0.8, 1.6, 3.2, 6.4, 12.5, 25, 50, 100 μM) using linear regression analysis.” left out
as §2, with “At the end of each reaction and prior to mass spectrometry analysis, acetyl CoA (1 μM) was added as the internal standard to each sample to correct for variations of the analyte.” left out

[3] = TycA, CoA with (S)-α-Phe as cosubstrate

Compound	Km ([1]; TycA, CoA 1 mM, ATP 1 mM, MgCl2 3 mM, 31° C., CoA with (S)-α-Phe as cosubstrate)	kcat^CoA [1, 3]	Km ([2]; CoA 1 mM, ATP 1 mM, MgCl2 3 mM, 31° C.)	kcat^CoA [2]	catalytic preference of TycA, higher than for (2R,3S)-Phenylisoserine ([1]; TycA with CoA)	catalytic preference of TycA, higher than for (S)-α-Phe ([1]; TycA with CoA)
N[C@@H](c1ccccc1)[C@@H](O)C(=O)O [(2R,3S)-PheIso, (2R,3S)-phenylisoserine]	89.3 ± 15 µM	0.00417 ± 0.00033 s⁻¹	191 ± 10 µM	0.00717 ± 0.00017 s⁻¹		
N[C@H](CC(=O)O)c1ccccc1 [(R)-β-Phe, (R)-β-phenylalanine]		0.0267 ± 0.005 s⁻¹		0.05 ± 0.00067 s⁻¹	10 fold	5 fold
